From patent US11413291B2, “Pesticidally active heterocyclic derivatives with sulfur containing substituents” (SYNGENTA PARTICIPATIONS AG, priority 2017, dated 2022)

Key:
Format in all cases: in vivo
[1] = system: Frankliniella occidentalis; experiment: Example B11: Frankliniella occidentalis, sprayed sunflower leaf discs; settings: foliar, 168 h, application rate 200 ppm, mixed ages, 7 days after infestation
Method: Sunflower leaf discs were placed on agar in 24-well microtiter plates and sprayed with aqueous test solutions prepared from 10,000 DMSO stock solutions. After drying the leaf discs were infested with a Frankliniella population of mixed ages. The samples were assessed for mortality 7 days after infestation.

Myzus persicae [2] = experiment: Example B5: Myzus persicae feeding/contact, sprayed sunflower leaf discs; settings: Myzus persicae, foliar, 144 h; application rate 200 ppm; mixed ages; 6 days after infestation
Method: Sunflower leaf discs were placed onto agar in a 24-well microtiter plate and sprayed with aqueous test solutions prepared from 10,000 ppm DMSO stock solutions. After drying, the leaf discs were infested with an aphid population of mixed ages. The samples were assessed for mortality 6 days after infestation.

Bemisia tabaci = experiment: Example B7: Bemisia tabaci, sprayed cotton leaf discs; settings: foliar, 144 h, application rate 200 ppm, adult white flies, 6 days after incubation
Method: Cotton leaf discs were placed on agar in 24-well microtiter plates and sprayed with aqueous test solutions prepared from 10,000 ppm DMSO stock solutions. After drying the leaf discs were infested with adult white flies. The samples were checked for mortality 6 days after incubation.

Spodoptera littoralis [3] = experiment: Example B1: Spodoptera littoralis, sprayed cotton leaf discs; settings: foliar, 72 h, application rate 200 ppm, L1 larvae, 3 days after infestation
Method: Cotton leaf discs were placed onto agar in 24-well microtiter plates and sprayed with aqueous test solutions prepared from 10′000 ppm DMSO stock solutions. After drying the leaf discs were infested with five L1 larvae. The samples were assessed for mortality, anti-feeding effect, and growth inhibition in comparison to untreated samples 3 days after infestation. Control of Spodoptera littoralis by a test sample is given when at least one of the categories mortality, anti-feedant effect, and growth inhibition is higher than the untreated sample.

Tetranychus urticae = experiment: Example B10: Tetranychus urticae, sprayed bean leaf discs; settings: foliar, 192 h, application rate 200 ppm, mixed population (mobile stages), 8 days after infestation
Method: Bean leaf discs on agar in 24-well microtiter plates were sprayed with aqueous test solutions prepared from 10,000 ppm DMSO stock solutions. After drying the leaf discs were infested with a mite population of mixed ages. The samples were assessed for mortality on mixed population (mobile stages) 8 days after infestation.

Plutella xylostella = experiment: Example B3: Plutella xylostella, artificial diet; settings: 120 h, application rate 200 ppm, L2 larvae, 5 days after infestation, read-out: effect in at least one of the two categories (mortality or growth inhibition)
Method: (§1) 24-well microtiter plates with artificial diet were treated with aqueous test solutions prepared from 10,000 ppm DMSO stock solutions by pipetting. After drying, the plates were infested with L2 larvae (10 to 15 per well). The samples were assessed for mortality and growth inhibition in comparison to untreated samples 5 days after infestation.

Diabrotica balteata = experiment: Example B4: Diabrotica balteata, sprayed maize sprouts; settings: 96 h, application rate 200 ppm, L2 larvae, 4 days after infestation, read-out: effect in at least one of the two categories (mortality or growth inhibition)
Method: as §1, with “Maize sprouts placed onto an agar layer in 24-well” for “24-well”, “plates” for “plates with artificial diet”, “spraying.” for “pipetting.”, “(6” for “(10”, “10” for “15”, “4” for “5”

Myzus persicae [4] = experiment: Example B6: Myzus persicae systemic, pea seedling roots in test solution; settings: Myzus persicae, 144 h; test rate 24 ppm; mixed ages; 6 days
Method: Roots of pea seedlings infested with an aphid population of mixed ages were placed directly into aqueous test solutions prepared from 10,000 DMSO stock solutions. The samples were assessed for mortality 6 days after placing seedlings into test solutions.

Euschistus heros = experiment: Example B8: Euschistus heros, sprayed soybean leaves; settings: Euschistus heros, 120 h; application rate 200 ppm; N2 nymphs; 5 days after infestation; read-out: effect in at least one of the two categories (mortality or growth inhibition)
Method: Soybean leaves on agar in 24-well microtiter plates were sprayed with aqueous test solutions prepared from 10,000 ppm DMSO stock solutions. After drying the leaves were infested with N2 nymphs. The samples were assessed for mortality and growth inhibition in comparison to untreated samples 5 days after infestation.

Spodoptera littoralis [5] = experiment: Example B2: Spodoptera littoralis, systemic uptake via lettuce roots from agar; settings: 144 h, test rate 12.5 ppm, 6 days after infestation, read-out: effect in at least one of the three categories (mortality, anti-feeding, or growth inhibition)
Source text: Test compounds were applied by pipette from 10′000 ppm DMSO stock solutions into 24-well plates and mixed with agar. Lettuce seeds were placed onto the agar and the multi well plate was closed by another plate which contained also agar. After 7 days the compound was absorbed by the roots and the lettuce grew into the lid plate. The lettuce leaves were then cut off into the lid plate. Spodoptera eggs were pipetted through a plastic stencil onto a humid gel blotting paper and the lid plate was closed with it. The samples were assessed for mortality, anti-feedant effect and growth inhibition in comparison to untreated samples 6 days after infestation.

CCS(=O)(=O)c1cc(C(C)(C)C#N)cnc1-c1cn2ccc(C(F)(F)C(F)(F)F)cc2n1 [Compound P6, 2-[5-ethylsulfonyl-6-[7-(1,1,2,2,2-pentafluoroethyl)imidazo[1,2-a]pyridin-2-yl]-3-pyridyl]-2-methyl-propanenitrile]
≥ 80%: mortality at 200 ppm [1] | mortality at 200 ppm (Myzus persicae [2]) | mortality at 200 ppm (Bemisia tabaci) | percent control (mortality, anti-feedant effect or growth inhibition) at 200 ppm (Spodoptera littoralis [3]) | mortality at 200 ppm (Tetranychus urticae) | percent effect (mortality or growth inhibition) at 200 ppm (Plutella xylostella) | percent effect (mortality or growth inhibition) at 200 ppm (Diabrotica balteata)

CCS(=O)(=O)c1cc(C(C)(C)C#N)cnc1-c1nc2cc(C(F)(F)F)n(C3CC3)c(=O)c2n1C [Compound P17, 2-[6-[5-cyclopropyl-3-methyl-4-oxo-6-(trifluoromethyl)imidazo[4,5-c]pyridin-2-yl]-5-ethylsulfonyl-3-pyridyl]-2-methyl-propanenitrile]
≥ 80%: mortality at 200 ppm [1] | mortality at 200 ppm (Myzus persicae [2]) | mortality at 200 ppm (Bemisia tabaci) | mortality at 24 ppm (Myzus persicae [4]) | percent control (mortality, anti-feedant effect or growth inhibition) at 200 ppm (Spodoptera littoralis [3]) | mortality at 200 ppm (Tetranychus urticae) | percent effect (mortality or growth inhibition) at 200 ppm (Plutella xylostella) | percent effect (mortality or growth inhibition) at 200 ppm (Diabrotica balteata)

CCS(=O)(=O)c1cc(C(C)(C)C#N)cnc1-c1cn2ccc(SC(F)(F)F)cc2n1 [Compound P7, 2-[5-ethylsulfonyl-6-[7-(trifluoromethylsulfanyl)imidazo[1,2-a]pyridin-2-yl]-3-pyridyl]-2-methyl-propanenitrile]
≥ 80%: mortality at 200 ppm [1] | mortality at 200 ppm (Myzus persicae [2]) | mortality at 200 ppm (Bemisia tabaci) | percent control (mortality, anti-feedant effect or growth inhibition) at 200 ppm (Spodoptera littoralis [3]) | percent effect (mortality or growth inhibition) at 200 ppm (Plutella xylostella) | percent effect (mortality or growth inhibition) at 200 ppm (Diabrotica balteata)

CCS(=O)(=O)c1cc(C(C)(C)C#N)ccc1-c1nc2cc(C(F)(F)F)n(C3CC3)c(=O)c2n1C [Compound P12, 2-[4-[5-cyclopropyl-3-methyl-4-oxo-6-(trifluoromethyl)imidazo[4,5-c]pyridin-2-yl]-3-ethylsulfonyl-phenyl]-2-methyl-propanenitrile]
≥ 80%: mortality at 200 ppm [1] | mortality at 200 ppm (Myzus persicae [2]) | mortality at 200 ppm (Bemisia tabaci) | percent control (mortality, anti-feedant effect or growth inhibition) at 200 ppm (Spodoptera littoralis [3]) | mortality at 200 ppm (Tetranychus urticae) | percent effect (mortality or growth inhibition) at 200 ppm (Plutella xylostella) | percent effect (mortality or growth inhibition) at 200 ppm (Diabrotica balteata)

CCn1c(C(F)(F)F)cc2nc(-c3ncc(C(C)(C)C#N)cc3S(=O)(=O)CC)n(C)c2c1=O [Compound P3, 2-[6-[5-ethyl-3-methyl-4-oxo-6-(trifluoromethyl)imidazo[4,5-c]pyridin-2-yl]-5-ethylsulfonyl-3-pyridyl]-2-methyl-propanenitrile]
≥ 80%: mortality at 200 ppm [1] | percent effect (mortality or growth inhibition) at 200 ppm (Euschistus heros) | mortality at 200 ppm (Myzus persicae [2]) | mortality at 200 ppm (Bemisia tabaci) | mortality at 24 ppm (Myzus persicae [4]) | percent effect (mortality, anti-feeding or growth inhibition) at 12.5 ppm (Spodoptera littoralis [5]) | percent control (mortality, anti-feedant effect or growth inhibition) at 200 ppm (Spodoptera littoralis [3]) | mortality at 200 ppm (Tetranychus urticae) | percent effect (mortality or growth inhibition) at 200 ppm (Plutella xylostella) | percent effect (mortality or growth inhibition) at 200 ppm (Diabrotica balteata)
